According to article PMC9145193 (Molecules, 2022):
Values joined by “and” are separate entries in the source; they are usually repeats but may differ in a detail not shown here. Equal entries are not always repeated. Where two headings read alike, the source gives them in different places.

How the values were obtained:
SH-SY5Y cells = assay: Cytotoxicity assay on SH-SY5Y cells (MTT); format: cell-based; details: 10, 25 and 50 μM, 24 h
Protocol: To evaluate the cytotoxicity of these new compounds, cell viability was tested on SH-SY5Y cells.
SH-SY5Y cells were grown in a 25 cm^2 culture flask in fresh MEM/F12 medium, supplemented with 10% fetal bovine serum, 100 U/mL penicillin, and 100 µg/mL streptomycin, and incubated at 37 °C with 5% CO2. Cells were seeded at a density of 1 × 10^4 cells per well in a 96-well plate. After incubation for 24 h, medium was removed. […] After 24 h treatment, 10 μL of 3-(4,5-dimethyl-2-thiazolyl)-2,5-diphenyl-2-H-tetrazolium bromide was added into each well. After 4 h of incubation at 37 °C, 100 μL of DMSO was added to dissolve the formazan crystals, and the mixture’s absorbance was measured at 490 nm under a microplate reader (FC/K3, Thermo, Waltham, MA, USA). The survival rate was estimated using the formula Ae/Ab × 100%, where Ae and Ab represent the absorbance of SH-SY5Y cells in the presence and absence of the tested drugs, respectively. Each experiment was replicated three times.

[1] = molecular target: T1, AChE enzyme from electrophorus electricus (eeAChE) (Electrophorus electricus, UniProt O42275); assay: biochemical; details: mean ± SEM from three independent experiments
T1 construct: purchased Merck C3389
Protocol: Donepezil was used as a positive control.
AChE activity was measured by the […] using AChE enzyme from electrophorus electricus (eeAChE) (C3389, Merck, Kenilworth, NJ, USA). AChE solution (2 U/mL) was prepared with 0.1 M phosphate buffer (pH 8.0) firstly. Varied concentrations of test compounds (20 μL), 1 mM 5′-dithiobis (2-nitrobenzoic acid) (DTNB) solution (100 μL), and AChE solution (40 μL) were added in order to each well of a 96-well plate. After incubation for 15 min at 37 °C, the reaction was initiated by adding 20 μL of acetylthiocholine iodide (1 mM) to the mixed solution. The absorbance of each plate was instantly measured at 405 nm using a microplate reader. The inhibition of each compound was estimated using the formula (1−Ai/Ac) × 100, where Ai and Ac represent the absorbance of AChE in the presence and absence of inhibitors, respectively. Each experiment was replicated three times. Plotting curves of log concentration via percentage of inhibition, the IC50 values of all tested compounds were graphically analyzed (Graph Pad Prism 8.0).

[2] = DPPH free radical scavenging assay; details: 50 μM, mean ± SEM
Protocol: DPPH assay was used to evaluate the free radical scavenging ability of the representative compound 10a, while Trolox was used as a control.
Compound 10a was tested for free radical-scavenging activity using 1,1-diphenyl-2-picryl-hydrazyl (DPPH) (D9132, Merck, Kenilworth, NJ, USA). To make a 0.1 mM concentration of DPPH stock solution, DPPH was dissolved in methanol. […] Trolox was used as a reference. The absorbance was measured at 545 nm after 30 min of reaction at 25 °C.

Aβ = molecular target: T2, Aβ (Homo sapiens, UniProt P05067); assay: Self-induced Aβ aggregation inhibition by thioflavin T assay; format: biochemical; details: read-out: Aβ Aggregation Inhibition (%)
T2 construct: Aggregation of β-amyloid peptide (Aβ) is one of the main histopathological hallmarks of AD; purchased Beyotime P9001
Protocol: Aggregation of β-amyloid peptide (Aβ) is one of the main histopathological hallmarks of AD [34].
A total of 1mg Aβ (P9001, Beyotime, Shanghai, China) was dissolved in 1 mL of hexafluoroisopropanol and aliquoted into 50 μL per tube. Then, 20 μL of DMSO was added into one tube of Aβ solution. The test compound was prepared as a 10 mM of stock solution with DMSO and diluted to 50 μM with PBS (including the control). Then, 20 μL of the test compound and 20 μL of the Aβ solution were added to a 96-well black plate, which was gently tapped to mix the solution, covered tightly and sealed with black tape to prevent evaporation of the solvent, and left in the dark at room temperature for 24 h. Then. 160 μL of THT solution at a concentration of 5 μM was added and the fluorescence absorption was measured at an excitation wavelength of 445 nm and an emission wavelength of 490 nm. The software GraphPad Prism 8.0 was used to analyze the data.

AChE = molecular target: T3, AChE (Electrophorus electricus, UniProt O42275); assay: Kinetic study of AChE inhibition (Lineweaver-Burk); format: biochemical; details: 10a at 0, 0.8 and 1.6 nM
T3 construct: purchased Merck C3389
Protocol: The mechanistic inhibition study of compound 10a on the AChE was carried out through kinetic parameters such as maximal velocity (Vmax), inhibitory concentration (Ki) and Michalis–Menten dissociation constant (Km).
Kinetic study of AChE inhibition was carried out using Ellman’s method, which is the same as the AChE assay, to determine the kinetic mechanism of chemical inhibition. The kinetic inhibition of compound 10a was analyzed at concentrations of 0.8 and 1.6nM. Lineweaver–Burk reciprocal plots were created by graphing 1/velocity vs. 1/[substrate] at various concentrations of substrate acetylthiocholine. The software GraphPad Prism 8.0 was used to analyze the data.

T1 sequence (O42275 24-633): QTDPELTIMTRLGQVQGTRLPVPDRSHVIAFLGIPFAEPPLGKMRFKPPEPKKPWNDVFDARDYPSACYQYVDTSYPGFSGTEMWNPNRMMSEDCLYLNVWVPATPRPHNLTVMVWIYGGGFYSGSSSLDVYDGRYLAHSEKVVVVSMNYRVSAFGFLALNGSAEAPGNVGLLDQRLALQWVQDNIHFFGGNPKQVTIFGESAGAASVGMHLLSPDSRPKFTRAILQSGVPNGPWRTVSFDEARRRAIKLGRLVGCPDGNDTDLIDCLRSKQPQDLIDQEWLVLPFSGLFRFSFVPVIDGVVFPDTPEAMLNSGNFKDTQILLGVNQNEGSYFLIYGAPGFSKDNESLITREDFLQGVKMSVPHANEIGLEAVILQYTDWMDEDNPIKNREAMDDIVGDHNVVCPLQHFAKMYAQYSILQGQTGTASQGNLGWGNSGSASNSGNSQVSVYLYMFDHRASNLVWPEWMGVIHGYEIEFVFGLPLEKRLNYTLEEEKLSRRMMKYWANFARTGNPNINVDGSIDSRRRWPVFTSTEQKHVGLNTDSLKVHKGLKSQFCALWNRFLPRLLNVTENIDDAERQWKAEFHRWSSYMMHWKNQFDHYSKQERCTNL
T2 sequence (P05067 672-713): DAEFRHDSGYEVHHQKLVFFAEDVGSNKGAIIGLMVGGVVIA
T3 sequence (O42275 24-633): as the sequence (O42275 24-633) above

With `COc1cc2c(cc1OC)C(=O)/C(=C/c1cc[n+](Cc3ccccc3F)cc1C(N)=O)OC2.[Br-]` [13b, (Z)-3-Carbamoyl-4-((6,7-dimethoxy-4-oxoisochroman-3-ylidene)methyl)-1-(2-fluorobenzyl)pyridin-1-ium Bromide] the “Cell viability on SH-SY5Y cells” value (SH-SY5Y cells) was “did not significantly alter cell viability” and the IC50 [1] was 3.54 ± 0.05 nM.
With `Cc1c(C)c2c(c(C)c1O)CCC(C)(C(=O)O)O2` (stereo not shown) [Trolox, reference compound] the “Reduced DPPH (%)” value [2] was 72.41 ± 4.23%.
In the case of `Oc1ccc(/C=C/c2cc(O)cc(O)c2)cc1` [Resveratrol, reference compound], the inhibition at 25 µM (Aβ; 25 μM, self-induced, thioflavin T, mean ± SEM) is reported as 83.3 ± 5.23%.
In the case of `COc1cc2c(cc1OC)C(=O)/C(=C/c1cc[n+](Cc3ccccc3)cc1C(C)=O)OC2.[Br-]` [10a, (Z)-3-Acetyl-1-benzyl-4-((6,7-dimethoxy-4-oxoisochroman-3-ylidene)methyl)pyridin-1-ium bromide], the “Type of AChE inhibition (Lineweaver-Burk plot)” value (AChE) is reported as “mixed-type inhibitor”, the inhibition at 25 µM (Aβ) is reported as 57 ± 2.68% and the “Reduced DPPH (%)” value [2] is reported as 31.89% and 31.89 ± 3.23%. For the same compound, the “Cell viability on SH-SY5Y cells” value (SH-SY5Y cells) was “did not significantly alter cell viability” and the IC50 [1] was 1.61 ± 0.02 nM.
`COc1cc2c(cc1OC)C(=O)/C(=C/c1cc[n+](Cc3ccccc3C(F)(F)F)cc1C(C)=O)OC2` [10q, (Z)-3-Acetyl-4-((6,7-dimethoxy-4-oxoisochroman-3-ylidene)methyl)-1-(2-(trifluoromethyl)benzyl)pyridin-1-ium Bromide] gave an IC50 [1] of 18.9 ± 1.16 nM.
